Measured values reported in the supplement of paper PMC10307832.

Key:
Experiment in all cases: relative viability (nuclei count vs DMSO), 5 days (fraction); higher = more cells survive
Silmitasertib = compound: O=C(O)c1ccc2c(c1)nc(Nc1cccc(Cl)c1)c1ccncc12 [Silmitasertib]
Outline: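 MetaXpress counted nuclei in 4× images of lung cancer cell lines that had been fixed, permeabilised and Hoechst-stained in one step. Before that, cells in 1536-well plates were kept overnight at 37 °C, pinned with five √10-spaced library-drug doses on vehicle-anchored plates, and cultured 5 days without medium change. Viability takes treated-well nuclei over vehicle-well nuclei and uses the median across plates. Plates were accepted only at control CV below 25% and at least one doubling.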

[1] = compound: O=C(O)c1ccc2c(c1)nc(Nc1cccc(Cl)c1)c1ccncc12 [Silmitasertib] + CC1(C)CCC(c2ccc(Cl)cc2)=C(CN2CCN(c3ccc(C(=O)NS(=O)(=O)c4ccc(N[C@H](CCN5CCOCC5)CSc5ccccc5)c(S(=O)(=O)C(F)(F)F)c4)cc3)CC2)C1 [Navitoclax] (partner 0.5 µM)
Outline: (§1)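 For relative viability, nuclei counts in treated wells were divided by those in vehicle wells. Lung cancer cell lines had been pin-tool dosed in 1536-well plates the day after seeding and cultured for 5 days, then fixed and stained in one step (final 0.05% Triton X-100, 1% formaldehyde, 1 ug/ml Hoechst) and imaged at 4×. Doses were one drug alone or a fixed anchor-drug dose plus five library-drug doses (not always all listed) in √10 steps, and values are duplicate-plate medians.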

[2] = compound: O=C(O)c1ccc2c(c1)nc(Nc1cccc(Cl)c1)c1ccncc12 [Silmitasertib] + CS(=O)(=O)CCNCc1ccc(-c2ccc3ncnc(Nc4ccc(OCc5cccc(F)c5)c(Cl)c4)c3c2)o1 [Lapatinib] (partner 2 µM)
Outline: as §1

[3] = compound: O=C(O)c1ccc2c(c1)nc(Nc1cccc(Cl)c1)c1ccncc12 [Silmitasertib] + Cc1nc(Nc2ncc(C(=O)Nc3c(C)cccc3Cl)s2)cc(N2CCN(CCO)CC2)n1 [Dasatinib] (partner 0.075 µM)
Outline: as §1

[4] = compound: O=C(O)c1ccc2c(c1)nc(Nc1cccc(Cl)c1)c1ccncc12 [Silmitasertib] + O=C(CCCCCCC(=O)Nc1ccccc1)NO [Vorinostat] (partner 1 µM)
Outline: as §1

Cell Line	relative viability (Silmitasertib; 0.04 µM)	relative viability (Silmitasertib; 0.4 µM)	relative viability (Silmitasertib; 1.265 µM)	relative viability (Silmitasertib; 4 µM)	relative viability ([1]; first compound 0.04 µM)	relative viability ([1]; first compound 0.4 µM)	relative viability ([1]; first compound 1.265 µM)	relative viability ([1]; first compound 4 µM)	relative viability ([2]; first compound 0.04 µM)	relative viability ([2]; first compound 0.4 µM)	relative viability ([2]; first compound 1.265 µM)	relative viability ([2]; first compound 4 µM)	relative viability ([3]; first compound 0.04 µM)	relative viability ([3]; first compound 0.4 µM)	relative viability ([3]; first compound 1.265 µM)	relative viability ([3]; first compound 4 µM)	relative viability ([4]; first compound 0.04 µM)	relative viability ([4]; first compound 0.4 µM)	relative viability ([4]; first compound 1.265 µM)	relative viability ([4]; first compound 4 µM)
NCI-H1651	0.974	0.991	1.02	0.989	1.01	1.06	1.09	1.02	1.08	0.997	0.99	0.626	0.49	0.387	0.448	0.384	0.572	0.456	0.335	0.594
HARA	1.13	0.678	0.668	0.38	1.16	0.88	0.944	0.984	0.901	0.696	0.608	0.592	0.254	0.246	0.253	0.272	0.627	0.301	0.464	0.416
H3255	1.05	0.877	0.946	0.906	0.593	0.294	0.347	0.208	0.239	0.227	0.204	0.169	0.364	0.34	0.298	0.349	0.747	0.772	0.868	0.645
CAL-12T	1.15	0.892	0.842	0.472	1.39	1.16	1.19	0.387	0.776	0.62	0.533	0.464	0.569	0.32	0.183	0.198	0.891	0.876	0.746	0.525
NCI-H1437	1.04	0.679	0.784	0.737	1.11		0.906	0.828	0.865		0.483	0.347	0.483	0.376	0.272	0.322	0.844	0.787	0.701	0.43
HOP-62	1.09		1.12	0.542	0.996		0.961	0.849	1.07		0.878	0.229	0.683		0.639	0.567	0.779		0.584	0.388
EPLC-272H	1.25		0.807	0.154	1.09		0.747	0.807	1.09		0.666	0.122	0.372		0.255	0.224	0.454	0.685	0.391	0.13
COR-L 105	1.05	0.902	0.768	0.553	0.999	0.691	0.71	0.563	0.338	0.312	0.311	0.349	0.357	0.345	0.34	0.264	0.843	0.901	0.688	0.663
HCC-366	0.993	0.794	0.923	0.136	1.15		0.921	0.82	1.2		0.784	0.12	0.57	0.48	0.525	0.379	0.396	0.221	0.413	0.0566
NCI-H2009	1.05	0.878	0.85	0.608	1.15	1.09	1.19	0.788	1.04	0.636	0.85	0.341	0.35	0.297	0.246	0.218	0.787	0.681	0.795	0.751
NCI-H23	1.07	0.395	0.747	0.372	0.957		0.732	0.728	1.45		0.73	0.355	0.793		0.652	0.581	0.6	0.281	0.545	0.165
NCI-H727	1.18	0.619	0.833	0.894	0.425	0.343	0.365	0.275	1.05	0.608	0.855	0.527	0.326	0.358	0.272	0.379	1.36	0.822	0.83	1.16
NCI-H1355	1.06		0.918	0.668	1.04		0.965	0.771	1.08		0.883	0.726	0.766		0.578	0.485	0.664		0.622	0.499
NCI-H1944	1.01	0.748	0.994	0.936	0.976	0.732	1.06	1.27	0.826	0.807	0.822	0.816	0.229	0.235	0.227	0.224	0.595	0.459	0.647	0.531
NCI-H2023	1.03	0.791	0.87	0.651	0.999	1.01	0.96	0.73	1.05	0.373	0.767	0.159	0.547	0.443	0.548	0.416	0.839	0.268	0.63	0.374
NCI-H1650	1.15	0.784	0.629	0.389	1.38	1.24	0.695	0.414	1.4	0.825	0.671	0.23	0.358	0.35	0.248	0.242	0.577	0.386	0.421	0.288
